Marks after values point to notes of the source that are not given here.
Experiments:
[1] = from http://www.drugbank.ca/drugs/DB00482; cited from earlier work
rat liver microsomes = experiment: Glucuronidation by rat liver microsomes; format: in vitro ADME; details: rat, 10 μM, pH 7.4
Procedure: (§1) FIG. 5A is a bar graph illustrating in vitro metabolism of phenolics via glucuronidation pathway. Glucuronidation rates of all the new locally bioavailable COX-2 inhibitors by rat liver microsomes. Additional metabolic rates of various locally bioavailable COX-2 inhibitors are in Table 3. […]. The incubation systems were: for glucuronidation, 0.88 mM magnesium chloride (MgCl2), 4.4 mM saccharolactone, 0.022 mg/mL alamethicin, 3.5 mM uridine 5′-diphospho-glucuronic acid (UDPGA), 10 μM substrates and different concentrations of microsomes in 50 mM potassium phosphate buffer (pH 7.4); for sulfation, 10 mM dithiothreitol (DTT), 5 mM MgCl2, 100 μM 3′-phosphoadenosine-5′-phosphosulfate (PAPS),10 μM substrate and different concentrations of S9 fractions in 50 mM potassium phosphate buffer (pH 7.4).
(§2) In vitro tools were employed to help predict the in vivo metabolism rates of the COX-2 inhibitors that are phenolics. The microsomes and S9 fractions prepared from colon or liver were used to determine the in vivo glucuronidation and sulfation rates of the phenolic compounds, respectively. By employing microsomes and S9 fractions prepared from both rats and humans, it could be determined if the results obtained in the rat model could be reasonably extrapolated to humans. In these experiments, raloxifene and genistein, two phenolic compounds which undergo extensive first-pass metabolism, were selected as controls.

human intestine S9 = experiment: Sulfation by human intestine S9; format: in vitro ADME; details: 10 μM, pH 7.4
Procedure: as §1, with “FIG. 5D” for “FIG. 5A”, “of phenolics.” for “of phenolics via glucuronidation pathway.”, “of 6a1-6a4” for “of all the new locally bioavailable COX-2 inhibitors”, “by human” for “by rat”, “liver and intestinal” for “liver”, “Table 4.” for “Table 3.”
as §2

human liver microsomes = experiment: Glucuronidation by human liver microsomes; format: in vitro ADME; details: human, 10 μM, pH 7.4
Procedure: as §1, with “FIG. 5D” for “FIG. 5A”, “of phenolics.” for “of phenolics via glucuronidation pathway.”, “of 6a1-6a4” for “of all the new locally bioavailable COX-2 inhibitors”, “by human” for “by rat”, “liver and intestinal” for “liver”, “Table 4.” for “Table 3.”
as §2

rat liver S9 = experiment: Sulfation by rat liver S9 fractions; format: in vitro ADME; details: 10 μM, pH 7.4
Procedure: as §1, with “FIG. 5C” for “FIG. 5A”, “via sulfonation” for “via glucuronidation”, “pathway. Sulfation” for “pathway. Glucuronidation”, “of 6a1-6a4” for “of all the new locally bioavailable COX-2 inhibitors”, “liver and colon S9 fractions.” for “liver microsomes.”, “μM 3′-phosphoadeno sine-5′-phosphosulfate” for “μM 3′-phosphoadenosine-5′-phosphosulfate”
as §2

rat colon microsomes = experiment: Glucuronidation by rat colon microsomes; format: in vitro ADME; details: rat, 10 μM, pH 7.4
Procedure: as §1, with “5B” for “5A”, “glucuronidation” for “metabolism”, “in liver and colon microsomes of rats.” for “via glucuronidation pathway.”, “6a1-6a4” for “all the new locally bioavailable COX-2 inhibitors”, “and colon microsomes were measured.” for “microsomes.”, “(PAPS), 10” for “(PAPS),10”
as §2

rat colon S9 = experiment: Sulfation by rat colon S9 fractions; format: in vitro ADME; details: 10 μM, pH 7.4
Procedure: as §1, with “FIG. 5C” for “FIG. 5A”, “via sulfonation” for “via glucuronidation”, “pathway. Sulfation” for “pathway. Glucuronidation”, “of 6a1-6a4” for “of all the new locally bioavailable COX-2 inhibitors”, “liver and colon S9 fractions.” for “liver microsomes.”, “μM 3′-phosphoadeno sine-5′-phosphosulfate” for “μM 3′-phosphoadenosine-5′-phosphosulfate”
as §2

[2] = test system: human intestine microsomes; experiment: Glucuronidation by human intestine microsomes; format: in vitro ADME; details: human, 10 μM, pH 7.4
Procedure: as §1, with “FIG. 5D” for “FIG. 5A”, “of phenolics.” for “of phenolics via glucuronidation pathway.”, “of 6a1-6a4” for “of all the new locally bioavailable COX-2 inhibitors”, “by human” for “by rat”, “liver and intestinal” for “liver”, “Table 4.” for “Table 3.”
as §2

human liver S9 = experiment: Sulfation by human liver S9; format: in vitro ADME; details: 10 μM, pH 7.4
Procedure: as §1, with “FIG. 5D” for “FIG. 5A”, “of phenolics.” for “of phenolics via glucuronidation pathway.”, “of 6a1-6a4” for “of all the new locally bioavailable COX-2 inhibitors”, “by human” for “by rat”, “liver and intestinal” for “liver”, “Table 4.” for “Table 3.”
as §2

Row | Glucuronidation rates by liver microsomes (Mean) (rat liver microsomes) [pmol/mg/min] | Sulfation rates by human intestine S9 (Mean) (human intestine S9) [pmol/mg/min] | Glucuronidation rates by liver microsomes (Mean) (human liver microsomes) [pmol/mg/min] | Sulfation rates by liver S9 (Mean) (rat liver S9) [pmol/mg/min] | Glucuronidation rates by colon microsomes (Mean) (rat colon microsomes) [pmol/mg/min] | Sulfation rates by colon S9 (Mean) (rat colon S9) [pmol/mg/min] | Glucuronidation rates by intestine microsomes (Mean) [2] [pmol/mg/min] | Sulfation rates by liver S9 (Mean) (human liver S9) [pmol/mg/min] | SMILES | LogP [1]
1 |  |  |  |  |  |  |  |  | Cc1ccc(-c2cc(C(F)(F)F)nn2-c2ccc(S(N)(=O)=O)cc2)cc1 [Celecoxib, celecoxib] | 4.01^b
2 | 402 | 58 | 681 | 100 | 54 | 0 | 2846 | 19 | O=C(c1ccc(OCCN2CCCCC2)cc1)c1c(-c2ccc(O)cc2)sc2cc(O)ccc12 [Raloxifene, reference compound] | 
